The record followed here is PubChem BioAssay (NCI).

Among the test systems are 786-0 renal; COLO 205 colon; EKVX NSCLC; HCT-15 colon; HL-60(TB) leukemia; KM12 colon; NCI-H460 lung; NCI/ADR-RES ovarian; OVCAR-4 ovarian; SF-268 CNS; SF-295 CNS; SK-OV-3 ovarian; T-47D breast; IGROV1 ovarian; MOLT-4 leukemia; NCI-H522 lung; SW-620 colon; UACC-62 melanoma; UO-31 renal.
What all share (experiment): DTP human tumour cell line panel, 48 h

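Values below derive from 48-hour exposures of cells grown in 96-well plates, with endpoints linearly interpolated between the two concentrations bracketing the appropriate inhibition level. TGI marks complete inhibition of growth.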 Where a SMILES comes first, the peptide text is derived from it. The star is where a group is joined. Cbz = O=C(OCc1ccccc1)*; NHNH2 = NN* Bounds are passed on as bounds.

Consider `C=C1CC(C)(c2ccc(Nc3nc4ccccc4c4occc34)cc2)OC1=O` (stereo not drawn), for which the TGI (commonly the concentration giving total growth inhibition) came out at 3.79 µM in the assay with 786-0 renal; 16.2 µM in the assay on COLO 205 colon; 24.5 µM in the assay on EKVX NSCLC; 4.73 µM with HCT-15 colon; 6.34 µM with HL-60(TB) leukemia; 34 µM in the assay on KM12 colon. The TGI in the assay on NCI-H460 lung was 51.5 µM; in the assay with NCI/ADR-RES ovarian, 20.1 µM; in the assay on OVCAR-4 ovarian it was 7.73 µM; with SF-268 CNS, 15.2 µM; in the assay on SF-295 CNS it was 27.4 µM; with SK-OV-3 ovarian, 24.1 µM. For the same compound, the TGI in the assay with T-47D breast is 6.85 µM.
Regarding `Clc1ccc(OCc2nnc(CCCCCCCCc3nnc(COc4ccc(Cl)cc4)n3Nc3ccccc3)n2Nc2ccccc2)cc1`, the TGI was 58 µM in the assay on 786-0 renal; 0.894 µM in the assay with COLO 205 colon; more than 87.9 µM with EKVX NSCLC; more than 100 µM in the assay on HCT-15 colon; more than 100 µM in the assay with IGROV1 ovarian; 36.9 µM in the assay with KM12 colon. Also, the TGI with MOLT-4 leukemia was more than 100 µM; with NCI-H460 lung, more than 100 µM; in the assay on NCI-H522 lung it was 34.5 µM; in the assay with NCI/ADR-RES ovarian, 81.5 µM; in the assay with OVCAR-4 ovarian, more than 100 µM; in the assay on SF-268 CNS, more than 100 µM. In addition, the TGI is more than 100 µM in the assay with SF-295 CNS; more than 100 µM with SK-OV-3 ovarian; more than 100 µM with SW-620 colon; more than 100 µM in the assay with T-47D breast; 38.8 µM with UACC-62 melanoma; more than 95.1 µM in the assay with UO-31 renal.
On to `O=C(CSc1n[nH]c(=O)[nH]c1=O)NNC(=O)c1cccc2nc3ccccc3nc12`, for which the TGI in the assay on 786-0 renal, in the assay on COLO 205 colon, in the assay with EKVX NSCLC, with HCT-15 colon, in the assay on HL-60(TB) leukemia and in the assay on IGROV1 ovarian was more than 100 µM each time. Besides, the TGI in the assay on KM12 colon, in the assay with MOLT-4 leukemia, with NCI-H460 lung, in the assay with NCI/ADR-RES ovarian, with OVCAR-4 ovarian and in the assay with SF-268 CNS was more than 100 µM in each case. In addition, the concentration for total growth inhibition (TGI) with SF-295 CNS, in the assay on SK-OV-3 ovarian, in the assay on SW-620 colon, in the assay with T-47D breast and in the assay with UACC-62 melanoma was more than 100 µM throughout.
For the compound `Cc1cn(C(C)OCCN2C(=O)c3ccccc3C2=O)c(=O)[nH]c1=O` (stereo not drawn), the TGI in the assay with 786-0 renal, in the assay on COLO 205 colon, in the assay on EKVX NSCLC, with HCT-15 colon, in the assay on IGROV1 ovarian and in the assay with KM12 colon was more than 100 µM each time. In addition, the TGI in the assay with MOLT-4 leukemia, in the assay with NCI-H460 lung, with NCI/ADR-RES ovarian, in the assay on OVCAR-4 ovarian, with SF-295 CNS and with SW-620 colon was more than 100 µM each time. Also, the TGI with T-47D breast, in the assay with UACC-62 melanoma and with UO-31 renal was more than 100 µM throughout.
For the compound `COC(=O)C1=Nc2c(C)nn(-c3ccccc3)c2N=C(c2ccc([N+](=O)[O-])cc2)C1`, the TGI in the assay with 786-0 renal, in the assay on COLO 205 colon, in the assay with HCT-15 colon, in the assay with HL-60(TB) leukemia, with IGROV1 ovarian and in the assay on KM12 colon was more than 10 µM throughout. For the same compound, the total growth inhibition concentration (TGI) in the assay on MOLT-4 leukemia, with NCI-H522 lung, in the assay on NCI/ADR-RES ovarian, in the assay on OVCAR-4 ovarian, in the assay on SF-268 CNS and in the assay with SF-295 CNS was more than 10 µM each time. In addition, the TGI in the assay on SK-OV-3 ovarian, in the assay on SW-620 colon, in the assay with T-47D breast and in the assay with UACC-62 melanoma was more than 10 µM throughout.
On to `CN(C)CCn1c(=O)c2ccc(NCCCN(C)CCCNc3ccc4c(=O)n(CCN(C)C)c(=O)n5c6ccc([N+](=O)[O-])cc6c(=O)c3c45)c3c(=O)c4cc([N+](=O)[O-])ccc4n(c1=O)c23`, for which the concentration for total growth inhibition (TGI) in the assay with 786-0 renal is 0.385 µM; in the assay on COLO 205 colon it was 0.204 µM; in the assay on EKVX NSCLC it was 1.32 µM; in the assay on HCT-15 colon it was 0.542 µM; in the assay with HL-60(TB) leukemia, 1.56 µM; with IGROV1 ovarian, 0.174 µM. The TGI in the assay with KM12 colon came out at 0.27 µM; in the assay on NCI-H460 lung, 0.12 µM; in the assay with NCI-H522 lung, 0.134 µM; in the assay on OVCAR-4 ovarian it was 0.0944 µM; with SF-268 CNS, 0.733 µM; in the assay with SF-295 CNS, 0.594 µM. Moreover, the TGI in the assay on SK-OV-3 ovarian was 0.886 µM; in the assay on T-47D breast it was more than 100 µM; with UACC-62 melanoma, 0.318 µM; in the assay on UO-31 renal it was 0.705 µM.
With `CCOC(=O)/C(C#N)=N\Nc1ccc(-n2c(C)nc3ccccc3c2=O)cc1`, the concentration for total growth inhibition (TGI) with 786-0 renal, in the assay on COLO 205 colon, in the assay on EKVX NSCLC, with HCT-15 colon, in the assay with HL-60(TB) leukemia and in the assay with IGROV1 ovarian was more than 100 µM throughout. Moreover, the TGI was more than 100 µM in the assay on KM12 colon; more than 100 µM with MOLT-4 leukemia; more than 100 µM in the assay on NCI-H460 lung; 86.8 µM in the assay with NCI/ADR-RES ovarian; more than 100 µM in the assay with SF-268 CNS; more than 100 µM with SF-295 CNS. For the same compound, the TGI with SK-OV-3 ovarian, with SW-620 colon, with T-47D breast, in the assay on UACC-62 melanoma and in the assay with UO-31 renal was more than 100 µM throughout.
As for `COC(=O)CC(NC(=O)OCc1ccccc1)C(=O)NC(CC(=O)OC)C(=O)NC(CC(=O)OC)C(=O)NC(CC(=O)OC)C(=O)NC(CC(=O)OC)C(=O)NC(CC(=O)OC)C(=O)NN` (stereo not drawn) (Cbz-D(OMe)D(OMe)D(OMe)D(OMe)D(OMe)D(OMe)-NHNH2; configuration not given here), the TGI in the assay on 786-0 renal, in the assay with COLO 205 colon, with HCT-15 colon, with HL-60(TB) leukemia, with IGROV1 ovarian and with KM12 colon was more than 100 µM in each case. Also, the concentration for total growth inhibition (TGI) in the assay on MOLT-4 leukemia, in the assay with NCI-H460 lung, in the assay with OVCAR-4 ovarian, in the assay on SF-268 CNS, with SF-295 CNS and in the assay with SK-OV-3 ovarian was more than 100 µM throughout. Besides, the TGI in the assay with SW-620 colon, in the assay with T-47D breast, with UACC-62 melanoma and in the assay on UO-31 renal was more than 100 µM each time.
